# Results reported in patent US9259476B2, “Monophosphorylated lipid A derivatives” (WAYNE STATE UNIVERSITY, priority 2009, dated 2016).
# Key:
# 3T3 A31 cells = assay: In vitro glycoengineered expression of GM3NPhAc on cell surface, flow cytometry with mAb 2H3; type: cell-based, murine
# Protocol: (§1) FIG. 3 depicts histograms of the glycoengineering of B16F0 cells (a), 3T3 A31 cells (b) and SKMEL-28 cells (c) using ManNPhAc which induces expression of GM3NPhAc on the cell surface. Cells were cultured with 0, 0.01, 0.02 and 0.04 mM of ManNPhAc, stained with mAb 2H3, labeled with FITC-labeled goat anti-mouse kappa antibody, and analyzed by flow cytometry. Data are presented as raw histograms derived from 20,000 events.
# (§2) FIG. 4 depicts histograms of the glycoengineering of B16F0 (a) and 3T3 A31 (b) using NeuNPhAc induces expression of GM3NPhAc on the cell surface. Cells were cultured with 0, 0.01, 0.02 and 0.04 mM of NeuNPhAc, stained with mAb 2H3, labeled with FITC-labeled goat anti-mouse kappa antibody, and analyzed by flow cytometry. Data are presented as raw histograms derived from 10,000 events.
# (§3) B16F0, 3T3 A31 and SKMEL-28 cells were incubated with 0.01, 0.02 and 0.04 mM of ManNPhAc or NeuNPhAc, harvested at different time, washed with FACS buffer (phosphate-buffered saline (PBS) containing 1% bovine serum albumin), and incubated on ice for 15 minutes with 100 μL of normal mouse serum (NMS) diluted 1:100 in FACS buffer. Cells were washed 3 times with FACS buffer, and incubated for 30 minutes on ice with 100 μL of anti-GM3NPhAc mAb 2H3 (cell culture supernatant) diluted 1:10 in FACS buffer. Cells were washed again (3 times) and incubated for 30 minutes on ice with 1 μg of FITC-conjugated goat anti-mouse kappa antibody diluted in FACS buffer (100 μL). After washing 3 times with FACS buffer, the expression of GM3NPhAc on cell surfaces was evaluated on a Becton Dickenson FACScan flow cytometer. Data are presented as raw histograms derived from 20000 events.
# B16F0 cells = assay: as above; type: cell-based, murine
# Protocol: as §1, §2, §3
# SKMEL-28 cells = assay: as above; type: cell-based, human
# Protocol: as §1, §3
# GM3NPhAc = assay: ELISA analysis of GM3NPhAc-specific immune responses in immunized mice; type: in vivo
# Protocol: FIG. 1 relates to the ELISA analysis of GM3NPhAc-specific immune responses in mice. For ELISA assays, GM3NPhAc-HSA was used as the capture antigen. Goat anti-mouse kappa antibodies were used to detect antibodies bond to the capture antigen. Titers are determined by linear regression analysis and defined as the highest dilution yielding an optical density of 0.2. (a) GM3NPhAc-specific total antibody contents in day −1, 27 and 38 mice sera. Mice were immunized with 1N containing 15 μg of GM3NPhAc. Each line represents the antibody level in serum pooled from a group of five mice. (b) Comparison of GM3NPhAc-specific total antibody titers in day 38 mice sera. Mice were immunized with 1N containing 15, 6 or 3 μg of GM3NPhAc. (c) Comparison of immunological results of conjugates 1, 2 and T-1. 1N: conjugate 1 alone; 1A: conjugate 1+an external adjuvant; 2N: conjugate 2 alone; 2A: conjugate 2+an external adjuvant; T-1N: conjugate T-1 alone. Each dot represents the GM3NPhAc-specific immune response of individual mouse and the black lines represent the average antibody level of a group of five mice.
# FIG. 2 relates to the titer analysis of different isotypes of GM3NPhAc-specific antibodies induced by 1N (left) and T-1N (right). […] Titers are determined by linear regression analysis and defined as the highest dilution yielding an optical density of 0.2. […]
structure (smiles),measurement,setting,value
[2H]C(C(=O)N[C@@H]1C(O)O[C@H](CO)[C@@H](O)[C@@H]1O)c1ccccc1 (stereo partly drawn) [ManNPhAc],Cells showing labelling of GM3NPhAc,3T3 A31 cells; 0.01 mM,no 3T3 A31 cell showing labelling of GM3NPhAc
same,Labelling for GM3NPhAc compared to control group,3T3 A31 cells; 0.01 mM,no substantial labelling
same,Labelling for GM3NPhAc compared to control group,3T3 A31 cells; 0.02 mM,no substantial labelling
same,Labelling for GM3NPhAc compared to control group,3T3 A31 cells; 0.04 mM,started to show labelling
same,Cells showing labelling of GM3NPhAc,B16F0 cells; 0.01 mM,only partial B16F0 cell
same,Expression of GM3NPhAc on cell surface,"B16F0 cells; 0.01 mM, 72 hours",significant expression of GM3NPhAc
same,Concentration dependence of GM3NPhAc expression,"B16F0 cells; 0.01, 0.02, 0.04 mM, 72 hours",dependent on ManNPhAc concentrations
same,Cells showing significant GM3NPhAc labelling above the control group,"SKMEL-28 cells; 0.01 mM, 96 hours",100%
same,Expression of GM3NPhAc on cell surface,"SKMEL-28 cells; 0.02 mM, 96 hours",further increased
same,Expression of GM3NPhAc on cell surface,"SKMEL-28 cells; 0.04 mM, 96 hours",further increased
same,Concentration at which a plateau level of GM3NPhAc expression was reached,SKMEL-28 cells; data not shown,≥ 0.04 mM
CCC(=O)OC1C(NC(=O)C[C@@H](CC)OC(=O)CC)[C@H](OCCNC(=O)CCC(=O)NCc2cn(CCOC3OC(CO)[C@@H](O[C@@H]4OC(CO)[C@H](O)C(O[C@]5(C(=O)O)CC(O)[C@@H](NC(=O)Cc6ccccc6)C([C@H](O)[C@H](O)CO)O5)C4O)C(O)C3O)nn2)OC(CO[C@@H]2OC(CO)[C@@H](OP(=O)(O)O)C(OC(=O)CC)C2NC(=O)C[C@@H](CC)OC(=O)CC)[C@H]1O (stereo partly drawn) [Compound T-1],"Isotypes of GM3NPhAc-specific antibodies (IgM, IgG1, IgG2a, IgG3)","GM3NPhAc; day 38 mice sera, conjugate alone","not only GM3NPhAc-specific IgM and IgG1 antibodies, but also much higher titers of IgG3 antibody"
same,GM3NPhAc-specific total antibody immune response,"GM3NPhAc; liposome of conjugate alone, no external adjuvant (groups 1N, 2N, T-1N), 15 μg of GM3NPhAc, s.c. day 0, 14, 21, 28",comparable to that induced by 1
O=C(Cc1ccccc1)N[C@H]1[C@H]([C@H](O)[C@H](O)CO)OC(O)(C(=O)O)C[C@@H]1O (stereo partly drawn) [NeuNPhAc],Utilization to express GM3NPhAc on cell surface,"3T3 A31 cells; 0.01, 0.02, 0.04 mM","much more efficiently to express GM3NPhAc, even better than B16F0 cancer cells"
same,Expression of GM3NPhAc on cell surface relative to ManNPhAc,"B16F0 cells; 72 hours, same concentrations (0.01, 0.02, 0.04 mM)",more significant expression of GM3NPhAc than that incubated with ManNPhAc
